Assay results from patent US20120059005A1, “COMBINATION OF (A) A PHOSPHOINOSITIDE 3-KINASE INHIBITOR AND (B) AN ANTIDIABETIC COMPOUND FOR USE IN THE TREATMENT OF PROLIFERATIVE DISEASES” (NOVARTIS AG, priority 2009, published 2012).

Test system: H520 non-small cell lung tumors
Experiment: H520 xenograft 20-day tumor growth inhibition assay
Format: in vivo, nude mice
Conditions: for Mean Tumor Vol. Change / Regression / T/C: Day 20
Method: EGFR-null H520 human non-small cell lung cancer (NSCLC) cells are treated with different doses of 2-Methyl-2-[4-(3-methyl-2-oxo-8-quinolin-3-yl-2, 3-dihydro-imidazo[4,5-c]quinolin-1-yl)-phenyl]-propionitrile monotosylate salt (also known as COMPOUND A) or 5-(2,6-di-morpholin-4-yl-pyrimidin-4-yl)-4-trifluoromethyl-pyridin-2-ylamine hydrochloride salt (also known as COMPOUND C), a single dose of metformin or both agents in combination, The H520 human NSCLC cells (NCl-H520, ATCC-HTB-182, available from American Type Culture Collection, Rockville, Md. US) are isolated from a sample of a lung mass taken from a patient with squamous cell carcinoma of the lung (Banks-Schlegel et at Cancer Res, 45(3): 1187-1197 (1985).
H520 tumor cells are grown in RPMI 1640 medium containing 100 units/mL penicillin G sodium, 100 μg/ML streptomycin sulfate, and 25 µg/mL gentamicin. The medium is supplemented with 10% fetal bovine serum, 2 mM glutamine, and 1 mM sodium pyruvate, and buffered with 10 mM HEPES and 0.075% sodium bicarbonate. The cells are cultured in tissue culture flasks in a humidified incubator at 37° C., in an atmosphere of 5% CO2 and 95% air. The cells are harvested for injection into 8-week old female nu/nu (nude) mice (Harlan Laboratories, Indianapolis, Ind.) by detaching the monolayers with 1× trypsin and resuspending at 5×10^7cells/mL in phosphate-buffered saline containing 50% Matrigel.
0.2 mL of H520 tumor cell suspension (1×10^7 cells) is injected subcutaneously in the right flank of 8-week old female nu/nu (nude) mice (Harlan Laboratories, Indianapolis, Ind.) having a body weight (BW) range of 18.1-26.9 g on Day 1 of the study. Tumors are monitored twice weekly and then daily as their mean volume approaches 120-180 mm^3. […] Tumor weight can be estimated with the assumption that 1 mg is equivalent to 1 mrn^3 of tumor volume.
The 11 groups of nude mice are treated as follows. One group of eight mice serves as Controls (C or Control) for all analyses and is administered intraperitoneally (i.p.) 50 mM sodium acetate at pH 4 (Vehicle 1) and then administered by oral gavage (p.o.) a composition comprising 10% N-methylpyrrolidone: 90% polyethylene glycol 300 (PEG 300) (Vehicle 2). […] Metformin is dissolved in 50 mM sodium acetate at pH 4 for dosing,
Compound C is stored at −20° C. protected from light. Stock solutions (10×) in 100% N-methylpyrrolidone (NMP) are prepared every five days, aliquotted, and stored in the dark at room temperature. On each treatment day, stock solution aliquots are diluted with polyethylene glycol (PEG300) to provide the formulated drug (Compound A or Compound C) in 10% NMP: 90% PEG300, Dosing solutions are protected from light and the formulated drug is administered within 1 hour after preparation.
For combination therapies, Compound A or Compound C is administered by oral gavage (p.o.) within 30 minutes after the intraperitoneal (i.p.) administration of metformin, except on Day 20 when Compound A or Compound C is given immediately after metformin.
Paclitaxel (Natural Pharmaceuticals, Inc., Beverly, Mass., USA) is administered by bolus tail-vein injections (i.v.) once daily on alternate days for five doses. Paclitaxel is dissolved in 50% ethanol and 50% Cremophor® EL to prepare a 10× stock solution stored at room temperature. On each day of dosing, an aliquot of the pad itaxel stock solution is diluted with 5% dextrose in water to yield a dosing solution containing 5% ethanol and 5% Cremophor® EL.
Statistical and graphical analyses was conducted by determining the difference in tumor volume between Day 1 (the start of dosing) and the endpoint day for each animal that remained on study on Day 20. Antitumor activity is expressed as % T/C (comparing the mean tumor volume change between the endpoint day and Day 1 for the treatment group to the Control). A T/C≦40% is classified as potential therapeutically active.

[1] = Paclitaxel 30 mg/kg i.v., 1x on alternate days for 5 doses
[2] = Compound A 41.1 mg/kg p.o., 1x daily
[3] = Compound A 68.5 mg/kg p.o., 1x daily
[4] = Compound C 32.7 mg/kg p.o., 1x daily
[5] = Compound C 54.4 mg/kg p.o., 1x daily until day 7 (stopped due to toxicity)
[6] = Metformin 192.3 mg/kg i.p., 1x daily

CC(=O)O[C@H]1C(=O)[C@@]2(C)[C@H]([C@H](OC(=O)c3ccccc3)[C@]3(O)C[C@H](OC(=O)[C@H](O)[C@@H](NC(=O)c4ccccc4)c4ccccc4)C(C)=C1C3(C)C)[C@]1(OC(C)=O)CO[C@@H]1C[C@@H]2O [Paclitaxel, reference compound]
Mean Tumor Vol. Change [1]: 53 mm^3
Regression [1]: None
T/C [1]: 5%
T/C (Paclitaxel 30 mg/kg i.v., 1x on alternate days for 5 doses, listed as paclitaxel): 5%

Cn1c(=O)n(-c2ccc(C(C)(C)C#N)cc2)c2c3cc(-c4cnc5ccccc5c4)ccc3ncc21 [Compound A, 2-Methyl-2-[4-(3-methyl-2-oxo-8-quinolin-3-yl-2,3-dihydro-imidazo[4,5-c]quinolin-1-yl)-phenyl]-propionitrile]
Mean Tumor Vol. Change [2]: 598 mm^3
Regression [2]: None
T/C [2]: 60% (ns^†)
Mean Tumor Vol. Change [3]: 466 mm^3
Regression [3]: None
T/C [3]: 47% (ns^†)

Nc1cc(C(F)(F)F)c(-c2cc(N3CCOCC3)nc(N3CCOCC3)n2)cn1 [Compound C, 5-(2,6-di-morpholin-4-yl-pyrimidin-4-yl)-4-trifluoromethyl-pyridin-2-ylamine]
Mean Tumor Vol. Change [4]: 542 mm^3
Regression [4]: None
T/C [4]: 54% (ns^†)
Mean Tumor Vol. Change [5]: 475 mm^3
Regression [5]: None
T/C (Compound C 54.4 mg/kg p.o., 1x daily until day 7 (stopped due to toxicity), not evaluable (ne)): 48% (ne)

CN(C)C(=N)N=C(N)N [Metformin, dimethyldiguanide, reference compound]
Mean Tumor Vol. Change [6]: 1003 mm^3
Regression [6]: None
T/C [6]: 101% (ns^†)
modulation of tumor growth in the 20-day tumor growth inhibition assay (metformin monotherapy at 192.3 mg/kg): did not appear to modulate tumor growth
